Where “and” joins values, the source holds several entries; their conditions need not be identical. Identical values can stand only once. Entries after “also recorded” stand apart in the source; their conditions may differ.
Tests used:
[1] = Stability study (ICH Q1A(R2)) of the emulsion; type: physicochemical; conditions: accelerated condition
Experimental: In this section, stability study is conducted using the abovementioned Example 1 as an example. The stability study is performed according to common practices known such as ICH HARMONISED TRIPARTITE GUIDELINE-Topic Q1A(R2) <Stability Testing of new Drug Substances and Products> and inspection items are screened based on USP chapter 771 and 1771. The stability study is carried out under two conditions: temperature of 5° C.±3° C. with no humidity; and temperature of 25° C.±2° C. with the relative humidity of 60%±5%. LBN content is determined with an HPLC equipped with an UV detector and using a mixture of two mobile phases. The HPLC condition reports as the following: [table]

[2] = test system: patients diagnosed with open angle glaucoma; experiment: IOP measurement after emulsion instillation; type: in vivo, human; conditions: baseline 17.68 ± 4.11, mean ± SD
Text: (§1) The patients diagnosed with open angle glaucoma in total are 35 eyes of 20 patients, wherein 10 eyes are diagnosed as POAG, and 25 eyes are NTG, besides 2 eyes had received prior corneal refractive surgery, and 1 eye had undergone cataract extraction and intraocular lens implantation. In the aspect of the medication using, 20 eyes are treatment naïve upon entry of the study (that is they are not using IOP lowering medication), and 15 eyes are previously treated with IOP lowering medication. The IOP lowering medication in the treated patients were requested for the following medication washout period: 4 weeks for beta-blockers and prostaglandin analogues, 2-4 weeks for alpha-agonists, and 1 week for carbonic anhydrase inhibitors in order to eliminate the experimental errors.
All patients are received the best corrected visual acuity test (BCVA), IOP measurement, optical coherence tomography (OCT), laser speckle flowgraph (LSFG) evaluation, fundus photo, visual field examination, blood pressure (BP), and heart rate measurement, and then these obtained data are averaged as the baseline data of the experiment, but the intraocular eye disease other than OAG, significant cataract influencing refractive errors or visual field result, systemic disease with resultant visual field defect, and unreliable LSFG results are excluded. […]

optic nerve head area = experiment: Laser speckle flowgraph (LSFG) evaluation, mean blur rate and pulse waveform; type: in vivo, human; conditions: for MS (mean skew): baseline 11.92 ± 3.94; for MS (mean skew) / MBRt (mean blur rate of tissue area) / MF (mean fluctuation) / MATI (mean acceleration time index) / MBRv (mean blur rate of vessel area) / MBOT (mean blowout time) / MBOS (mean blowout score): mean ± SD; for MBRt (mean blur rate of tissue area): baseline 12.65 ± 3.57; for MF (mean fluctuation): baseline 13.76 ± 3.79; for MATI (mean acceleration time index): baseline 32.62 ± 5.80; for MBRv (mean blur rate of vessel area): baseline 40.24 ± 10.65; for MBOT (mean blowout time): baseline 50.53 ± 8.53; for MBOS (mean blowout score): baseline 75.27 ± 6.51; for MBRt (%), percentage of baseline / MBRv (%), percentage of baseline: baseline 100.0 ± 0
Text: as §1
(§2) All patients are received the best corrected visual acuity test (BCVA), IOP measurement, optical coherence tomography (OCT), laser speckle flowgraph (LSFG) evaluation, fundus photo, visual field examination, blood pressure (BP), and heart rate measurement, and then these obtained data are averaged as the baseline data of the experiment, but the intraocular eye disease other than OAG, significant cataract influencing refractive errors or visual field result, systemic disease with resultant visual field defect, and unreliable LSFG results are excluded.
In the LSFG evaluation, one drop of said emulsion is instilled in the examined eyes at clinic. Afterward, LSFG measurements are repeated at 30 minutes and 2 hours post-LBN instillation. The patients would continuously instill the emulsion once every night for one month, and return to clinic again for another LSFG exam. Laser speckle flowgraph (LSFG-NAVI version 3.1.39.2 software, Softcare Ltd., Fukuoka, Japan) are used to measure the mean blur rate (MBR) of the optic nerve head area for pulse waveform analysis in all patients. Averaged MBR and pulse waveform parameters are documented at each LSFG measurement in order to evaluate the effect of latanoprostene bunod using on microcirculation of optic nerve head.

[3] = test system: patients diagnosed with open angle glaucoma; experiment: Blood pressure, ocular perfusion pressure and heart rate measurement; type: in vivo, human; conditions: for MOPP (mean ocular perfusion pressure): baseline 48.82 ± 7.10; for MOPP (mean ocular perfusion pressure) / MHR (mean heart rate) / MBP (mean blood pressure): mean ± SD; for MHR (mean heart rate): baseline 74.03 ± 8.95; for MBP (mean blood pressure): baseline 99.69 ± 9.90
Text: as §1, §2

[4] = all time points, Wilcoxon signed rank test

O=C(CCC/C=C\C[C@@H]1[C@@H](CC[C@@H](O)CCc2ccccc2)[C@H](O)C[C@@H]1O)OCCCCO[N+](=O)[O-] [LBN, Latanoprostene bunod]
assay of LBN upon storage [1]: remained unchanged | MIOP (mean intraocular pressure) ([2]; 30 minutes after instillation): 18.29 ± 4.00 mmHg | MIOP (mean intraocular pressure) ([2]; 2 hours after instillation): 17.24 ± 4.14 mmHg | MS (mean skew) (optic nerve head area; 1 month): 10.99 ± 2.30 AU | MBRt (mean blur rate of tissue area) (optic nerve head area; 1 month): 12.67 ± 3.80 AU | MF (mean fluctuation) (optic nerve head area; 1 month): 13.44 ± 3.31 AU | MATI (mean acceleration time index) (optic nerve head area; 1 month): 31.71 ± 4.11% | MBRv (mean blur rate of vessel area) (optic nerve head area; 1 month): 45.49 ± 12.22 AU | MBOT (mean blowout time) (optic nerve head area; 1 month): 52.67 ± 6.62 AU | MBOS (mean blowout score) (optic nerve head area; 1 month): 77.26 ± 6.26 AU | MBRt (%), percentage of baseline (optic nerve head area; 1 month): 101.84 ± 15.33% | MBRv (%), percentage of baseline (optic nerve head area; 1 month): 113.91 ± 26.53% | MS (mean skew) (optic nerve head area; 30 minutes): 11.84 ± 2.08 AU | MBRt (mean blur rate of tissue area) (optic nerve head area; 30 minutes): 12.48 ± 3.04 AU | MF (mean fluctuation) (optic nerve head area; 30 minutes): 13.94 ± 4.30 AU | MATI (mean acceleration time index) (optic nerve head area; 30 minutes): 31.51 ± 4.04% | MBRv (mean blur rate of vessel area) (optic nerve head area; 30 minutes): 41.95 ± 10.03 AU | MBOT (mean blowout time) (optic nerve head area; 30 minutes): 49.76 ± 6.17 AU | MBOS (mean blowout score) (optic nerve head area; 30 minutes): 74.44 ± 7.60 AU | MBRt (%), percentage of baseline (optic nerve head area; 30 minutes): 100.63 ± 14.37% | MBRv (%), percentage of baseline (optic nerve head area; 30 minutes): 105.97 ± 16.49% | MS (mean skew) (optic nerve head area; 2 hours): 11.82 ± 2.58 AU | MBRt (mean blur rate of tissue area) (optic nerve head area; 2 hours): 12.73 ± 3.46 AU | MF (mean fluctuation) (optic nerve head area; 2 hours): 13.46 ± 3.95 AU | MBRv (mean blur rate of vessel area) (optic nerve head area; 2 hours): 45.14 ± 10.59 AU | MBOT (mean blowout time) (optic nerve head area; 2 hours): 52.09 ± 5.56 AU | MBOS (mean blowout score) (optic nerve head area; 2 hours): 76.24 ± 6.67 AU | MBRt (%), percentage of baseline (optic nerve head area; 2 hours): 101.84 ± 13.71% | MBRv (%), percentage of baseline (optic nerve head area; 2 hours): 114.36 ± 20.02% and 114.36 ± 20.2 % | mean blur rate of tissue area (MBRt), difference from baseline (optic nerve head area; [4]): not significantly different | MOPP (mean ocular perfusion pressure) ([3]; 1 month): 50.80 ± 12.06 mmHg | MHR (mean heart rate) ([3]; 1 month): 72.03 ± 10.68 min⁻¹ | MBP (mean blood pressure) ([3]; 1 month): 98.08 ± 12.06 mmHg | MOPP (mean ocular perfusion pressure) ([3]; 30 minutes): 47.87 ± 8.07 mmHg | MBP (mean blood pressure) ([3]; 30 minutes): 99.62 ± 11.54 mmHg | MOPP (mean ocular perfusion pressure) ([3]; 2 hours): 48.65 ± 9.48 mmHg | MHR (mean heart rate) ([3]; 2 hours): 77.77 ± 11.11 min⁻¹ | MBP (mean blood pressure) ([3]; 2 hours): 98.88 ± 14.12 mmHg | mean blood pressure (MBP), difference from baseline [3, 4]: not significantly different | mean ocular perfusion pressure (MOPP), difference from baseline [3, 4]: not significantly different; also recorded: has not differed

Reference: patent US20230330104A1, “PRESERVATIVE-FREE OPHTHALMIC PHARMACEUTICAL EMULSION AND ITS APPLICATION” (Caravel Therapeutics, Inc., priority 2022, published 2023)
